Test results published in PubChem BioAssay (NCI).
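48-hour exposure; five concentrations; linearly interpolated endpoints. The concentration for 50% growth inhibition is given as GI50. TGI marks complete inhibition of growth.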

Columns and labels:
Assay in all cases: growth of human tumour cells (NCI), 48 h
[1] = test system: MALME-3M melanoma
[2] = test system: RPMI-8226 leukemia
[3] = test system: IGROV1 ovarian
[4] = test system: HCT-116 colon
[5] = test system: UACC-62 melanoma
[6] = test system: MOLT-4 leukemia
[7] = test system: HOP-62 NSCLC
[8] = test system: EKVX NSCLC
[9] = test system: SN12C renal
[10] = test system: SR leukemia
[11] = test system: M14 melanoma
[12] = test system: A498 renal
[13] = test system: NCI-H226 lung
[14] = test system: SK-MEL-2 melanoma
[15] = test system: DU-145 prostate
[16] = test system: MCF7 breast
[17] = test system: MDA-MB-231 breast
[18] = test system: UO-31 renal
[19] = test system: OVCAR-5 ovarian
[20] = test system: HOP-92 NSCLC
[21] = test system: OVCAR-8 ovarian
[22] = test system: U251 CNS
[23] = test system: SNB-19 CNS
[24] = test system: SF-539 CNS
[25] = test system: SNB-75 CNS
[26] = test system: HCT-15 colon
[27] = test system: A549 NSCLC
[28] = test system: TK-10 renal
[29] = test system: CAKI-1 renal
[30] = test system: HT29 colon
[31] = test system: KM12 colon
[32] = test system: MDA-MB-435
[33] = test system: T-47D breast
[34] = test system: K-562 leukemia
[35] = test system: SF-295 CNS
[36] = test system: SF-268 CNS
[37] = test system: COLO 205 colon
[38] = test system: OVCAR-4 ovarian
[39] = test system: HL-60(TB) leukemia
[40] = test system: HCC-2998 colon
[41] = test system: 786-0 renal
[42] = test system: CCRF-CEM leukemia
[43] = test system: ACHN renal
[44] = test system: SK-OV-3 ovarian
[45] = test system: SW-620 colon
[46] = test system: NCI/ADR-RES ovarian
[47] = test system: NCI-H460 lung
[48] = test system: NCI-H522 lung
[49] = test system: RXF 393 renal
[50] = test system: LOX IMVI melanoma
[51] = test system: OVCAR-3 ovarian
[52] = test system: HS 578T breast
[53] = test system: SK-MEL-5 melanoma
[54] = test system: PC-3 prostate
[55] = test system: BT-549 breast
[56] = test system: SK-MEL-28 melanoma
[57] = test system: UACC-257 melanoma
[58] = test system: NCI-H23 lung

CN(C)CCCOc1c2ccc(Cl)cc2nc2c1oc1ccccc12
GI50 [1]: 1.73 µM | TGI [1]: 3.82 µM | GI50 [2]: 2.07 µM | TGI [2]: 7.52 µM | GI50 [3]: 2.14 µM | TGI [3]: 12 µM | GI50 [4]: 0.437 µM | TGI [4]: 10.1 µM | GI50 [5]: 1.75 µM | TGI [5]: 3.61 µM | GI50 [6]: 0.497 µM | TGI [6]: 10.5 µM | GI50 [7]: 2.09 µM | TGI [7]: 11.6 µM | GI50 [8]: 2.64 µM | TGI [8]: 10.3 µM | GI50 [9]: 1.02 µM | TGI [9]: 11.2 µM | GI50 [10]: 0.697 µM | TGI [10]: 6.72 µM | GI50 [11]: 1.5 µM | TGI [11]: 3.13 µM | GI50 [12]: 3.14 µM | TGI [12]: 8.92 µM | GI50 [13]: 2.14 µM | TGI [13]: 6.77 µM | GI50 [14]: 1.86 µM | TGI [14]: 3.53 µM | GI50 [15]: 2.26 µM | TGI [15]: 14 µM | GI50 [16]: 1.17 µM | TGI [16]: 5.48 µM | GI50 [17]: 1.8 µM | TGI [17]: 8.49 µM | GI50 [18]: 0.553 µM | TGI [18]: 3.37 µM | GI50 [19]: 2.09 µM | TGI [19]: 8.04 µM | GI50 [20]: 0.584 µM | TGI [20]: 3.59 µM | GI50 [21]: 1.37 µM | TGI [21]: 10.9 µM | GI50 [22]: 1.66 µM | TGI [22]: 10.7 µM | GI50 [23]: 2.37 µM | TGI [23]: 11.9 µM | GI50 [24]: 1.43 µM | TGI [24]: 2.84 µM | GI50 [25]: 1.48 µM | TGI [25]: 2.85 µM | GI50 [26]: 1.07 µM | TGI [26]: 10.1 µM | GI50 [27]: 1.55 µM | TGI [27]: 11.2 µM | GI50 [28]: 2.96 µM | TGI [28]: 7.62 µM | GI50 [29]: 0.888 µM | TGI [29]: 10.4 µM | GI50 [30]: 0.713 µM | TGI [30]: 3 µM | GI50 [31]: 1.87 µM | TGI [31]: 11.9 µM | GI50 [32]: 1.55 µM | TGI [32]: 3.09 µM | GI50 [33]: 2.64 µM | TGI [33]: 9.87 µM | GI50 [34]: 0.62 µM | TGI [34]: 13.9 µM | GI50 [35]: 2.18 µM | TGI [35]: 10.8 µM | GI50 [36]: 1.62 µM | TGI [36]: 11.2 µM | GI50 [37]: 1.08 µM | TGI [37]: 2.52 µM | GI50 [38]: 1.75 µM | TGI [38]: 7.31 µM | GI50 [39]: 1.83 µM | TGI [39]: 5.88 µM | GI50 [40]: 1.03 µM | TGI [40]: 2.53 µM | GI50 [41]: 1.78 µM | TGI [41]: 11.2 µM | GI50 [42]: 2.1 µM | TGI [42]: 11.1 µM | GI50 [43]: 0.623 µM | TGI [43]: 12.5 µM | GI50 [44]: 2.42 µM | TGI [44]: 9.55 µM | GI50 [45]: 0.535 µM | TGI [45]: 8.31 µM | GI50 [46]: 0.677 µM | TGI [46]: 6.65 µM | GI50 [47]: 0.557 µM | TGI [47]: 10.2 µM | GI50 [48]: 1.57 µM | TGI [48]: 4.61 µM | GI50 [49]: 1.37 µM | TGI [49]: 3.71 µM | GI50 [50]: 0.516 µM | TGI [50]: 1.83 µM | GI50 [51]: 2.62 µM | TGI [51]: 12.7 µM | GI50 [52]: 2.15 µM | TGI [52]: 10.1 µM | GI50 [53]: 1.78 µM | TGI [53]: 3.21 µM | GI50 [54]: 1.71 µM | TGI [54]: 5.41 µM | GI50 [55]: 2.08 µM | TGI [55]: 7.23 µM | GI50 [56]: 1.81 µM | TGI [56]: 3.43 µM | GI50 [57]: 1.85 µM | TGI [57]: 3.79 µM

C=C1[C@@H](C)C2[C@H](Cc3ccccc3)NC(=O)[C@]23[C@H](OC(C)=O)/C=C/[C@@](C)(O)C(=O)[C@@H](C)C/C=C/[C@H]3[C@@H]1O (some centres undefined)
GI50 [1]: > 16.7 µM | TGI [1]: > 16.7 µM | GI50 [2]: 3.84 µM | TGI [2]: > 16.7 µM | GI50 [3]: 0.574 µM | TGI [3]: > 16.7 µM | GI50 [4]: 0.718 µM | TGI [4]: > 16.7 µM | GI50 [5]: > 16.7 µM | TGI [5]: > 16.7 µM | TGI [6]: > 16.7 µM | GI50 [7]: 0.035 µM | TGI [7]: > 4.4 µM | GI50 [8]: 0.975 µM | TGI [8]: > 16.7 µM | GI50 [9]: > 16.7 µM | TGI [9]: > 16.7 µM | GI50 [10]: > 15.7 µM | TGI [10]: > 16.7 µM | GI50 [11]: > 11.4 µM | TGI [11]: > 16.7 µM | GI50 [12]: 0.11 µM | TGI [12]: 0.826 µM | GI50 [13]: 16.5 µM | TGI [13]: > 16.7 µM | GI50 [14]: > 16.7 µM | TGI [14]: > 16.7 µM | GI50 [15]: 7.04 µM | TGI [15]: > 16.7 µM | GI50 [16]: 0.756 µM | TGI [16]: > 16.7 µM | GI50 [17]: 0.366 µM | TGI [17]: > 16.7 µM | GI50 [18]: 0.251 µM | TGI [18]: 3.58 µM | GI50 [19]: > 9.92 µM | TGI [19]: > 16.7 µM | GI50 [20]: 0.099 µM | TGI [20]: 0.699 µM | GI50 [21]: > 16.7 µM | TGI [21]: > 16.7 µM | GI50 [22]: 0.105 µM | TGI [22]: > 16.7 µM | GI50 [23]: 0.265 µM | TGI [23]: > 16.7 µM | GI50 [24]: 0.322 µM | TGI [24]: > 16.7 µM | GI50 [25]: 0.0126 µM | TGI [25]: 0.12 µM | TGI [26]: > 16.7 µM | GI50 [27]: 0.915 µM | TGI [27]: > 16.7 µM | GI50 [28]: 0.714 µM | TGI [28]: > 16.7 µM | GI50 [30]: 0.0933 µM | TGI [30]: > 16.7 µM | GI50 [31]: > 16.7 µM | TGI [31]: > 16.7 µM | GI50 [58]: > 16.7 µM | TGI [58]: > 16.7 µM | GI50 [32]: > 16.7 µM | TGI [32]: > 16.7 µM | GI50 [33]: > 16.7 µM | TGI [33]: > 16.7 µM | GI50 [34]: > 16.7 µM | TGI [34]: > 16.7 µM | GI50 [35]: 1.16 µM | TGI [35]: > 16.7 µM | GI50 [36]: 0.228 µM | TGI [36]: > 16.7 µM | GI50 [37]: 2.32 µM | TGI [37]: > 16.7 µM | GI50 [38]: 0.824 µM | TGI [38]: > 16.7 µM | GI50 [39]: 5.31 µM | TGI [39]: > 16.7 µM | GI50 [40]: > 16.7 µM | TGI [40]: > 16.7 µM | TGI [41]: > 16.7 µM | GI50 [42]: > 11.8 µM | TGI [42]: > 16.7 µM | GI50 [43]: 1.32 µM | TGI [43]: > 16.7 µM | GI50 [44]: 0.0997 µM | TGI [44]: > 15.2 µM | GI50 [45]: > 16.7 µM | TGI [45]: > 16.7 µM | GI50 [46]: > 16.7 µM | TGI [46]: > 16.7 µM | GI50 [47]: 0.571 µM | TGI [47]: > 16.7 µM | TGI [48]: > 16.7 µM | GI50 [49]: 0.105 µM | TGI [49]: 4.19 µM | GI50 [50]: 0.272 µM | TGI [50]: > 8.76 µM | GI50 [51]: > 16.7 µM | TGI [51]: > 16.7 µM | GI50 [52]: 0.0826 µM | TGI [52]: > 16.7 µM | GI50 [53]: 0.955 µM | TGI [53]: > 11.8 µM | GI50 [54]: > 16.7 µM | TGI [54]: > 16.7 µM | GI50 [55]: 0.528 µM | TGI [55]: > 16.7 µM | GI50 [56]: > 16.7 µM | TGI [56]: > 16.7 µM | GI50 [57]: > 16.7 µM | TGI [57]: > 16.7 µM
